Experimental data published in ChEMBL document CHEMBL1141993, “Synthesis and biological activity of new 5-O-sugar modified ketolide and 2-fluoro-ketolide antibiotics” (2005).
Values after ≈ are worked out from the molar mass of the structure shown.

Legend:
Type in all cases: functional
Streptococcus pyogenes [1] = assay: Minimum inhibitory concentration of compound against Ery-S Streptococcus pyogenes ATCC 19615 was determined
Streptococcus pneumoniae [2] = assay: Minimum inhibitory concentration of compound against Ery-R Streptococcus pneumoniae 163 was determined
Staphylococcus aureus [3] = assay: Minimum inhibitory concentration of compound against Ery-S Staphylococcus aureus ATCC 29213 was determined
Staphylococcus aureus [4] = assay: Minimum inhibitory concentration of compound against Ery-R Staphylococcus aureus 96:11480 was determined
Haemophilus influenzae [5] = assay: Minimum inhibitory concentration of compound against Ery-S Haemophilus influenzae ATCC 49247 was determined
Streptococcus pneumoniae [6] = assay: Minimum inhibitory concentration of compound against Ery-S Streptococcus pneumoniae ATCC 49619 was determined
Streptococcus pneumoniae [7] = assay: Minimum inhibitory concentration of compound against Ery-R Streptococcus pneumoniae 303 was determined
Streptococcus pyogenes [8] = assay: Minimum inhibitory concentration of compound against Streptococcus pyogenes ATCC 13029 Ery-R was determined
Streptococcus pneumoniae [9] = assay: Minimum inhibitory concentration of compound against Streptococcus pneumoniae ATCC 49163 Ery-R was determined
Streptococcus pneumoniae [10] = assay: Minimum inhibitory concentration of compound against Streptococcus pneumoniae ATCC 49619 Ery-S was determined
Streptococcus pneumoniae [11] = assay: Minimum inhibitory concentration of compound against Streptococcus pneumoniae ATCC 49303 Ery-R was determined
Haemophilus influenzae [12] = assay: Minimum inhibitory concentration of compound against Haemophilus influenzae ATCC 49247 Ery-S was determined
Staphylococcus aureus [13] = assay: Minimum inhibitory concentration of compound against Staphylococcus aureus ATCC 96:11480 Ery-R was determined
Staphylococcus aureus [14] = assay: Minimum inhibitory concentration of compound against Staphylococcus aureus ATCC 23029 Ery-S was determined
Streptococcus pyogenes [15] = assay: Minimum inhibitory concentration of compound against Streptococcus pyogenes ATCC 19615 Ery-S was determined
Streptococcus pneumoniae [16] = assay: Minimum inhibitory concentration of compound against Ery-S Streptococcus pneumoniae 3773 was determined
Streptococcus pyogenes [17] = assay: Minimum inhibitory concentration of compound against Ery-R Streptococcus pyogenes 3262 was determined
Streptococcus pneumoniae [18] = assay: Minimum inhibitory concentration of compound against Ery-R Streptococcus pneumoniae 5032 was determined
Streptococcus pyogenes [19] = assay: Minimum inhibitory concentration of compound against Ery-R Streptococcus pyogenes 3029 was determined
Streptococcus pyogenes [20] = assay: Minimum inhibitory concentration of compound against Ery-R Streptococcus pyogenes ATCC 19615 was determined
Streptococcus pyogenes [21] = assay: Minimum inhibitory concentration of compound against Ery-R Streptococcus pyogenes 1721 was determined
Streptococcus pyogenes [22] = assay: Minimum inhibitory concentration of compound against Ery-R Streptococcus pyogenes 1850 was determined
Streptococcus pneumoniae [23] = assay: 1 Minimum inhibitory concentration of compound against Ery-R Streptococcus pneumoniae 163 was determined
Staphylococcus aureus [24] = assay: Minimum inhibitory concentration of compound against Ery-S Staphylococcus aureus ATCC 23029 was determined
Streptococcus pyogenes [25] = assay: Minimum inhibitory concentration of compound against Ery-R Streptococcus pyogenes 13029 was determined

| Structure (SMILES) | MIC (Streptococcus pyogenes [1]) | MIC (Streptococcus pneumoniae [2]) | MIC (Staphylococcus aureus [3]) | MIC (Staphylococcus aureus [4]) | MIC (Haemophilus influenzae [5]) | MIC (Streptococcus pneumoniae [6]) | MIC (Streptococcus pneumoniae [7]) | MIC (Streptococcus pneumoniae [10]) | MIC (Streptococcus pneumoniae [16]) | MIC (Streptococcus pyogenes [17]) | MIC (Streptococcus pneumoniae [18]) | MIC (Streptococcus pyogenes [19]) | MIC (Streptococcus pyogenes [21]) | MIC (Streptococcus pyogenes [22]) | further results |
| --- | --- | --- | --- | --- | --- | --- | --- | --- | --- | --- | --- | --- | --- | --- | --- |
| CC[C@H]1OC(=O)[C@H](C)C(=O)[C@H](C)[C@@H](O[C@@H]2OC[C@@H](O)[C@H](N(C)C)[C@H]2O)[C@@](C)(OC)C[C@@H](C)C(=O)[C@H](C)[C@H]2N(CCCCn3cc(-c4ccccn4)nn3)C(=O)O[C@]12C | ≤ 0.125 µg/mL | 2 µg/mL (≈ 2.45 µM) | 4 µg/mL (≈ 4.91 µM) | 4 µg/mL (≈ 4.91 µM) | > 64 µg/mL | 4 µg/mL (≈ 4.91 µM) | 16 µg/mL (≈ 19.6 µM) |  |  |  |  |  |  |  |  |
| CC[C@H]1OC(=O)[C@H](C)C(=O)[C@H](C)[C@@H](O[C@@H]2O[C@H](COCc3ccccc3)C[C@H](N(C)C)[C@H]2O)[C@@](C)(OC)C[C@@H](C)C(=O)[C@H](C)[C@H]2N(CCCCn3cc(-c4ccccn4)nn3)C(=O)O[C@]12C |  |  |  |  |  |  |  | ≤ 0.125 µg/mL |  |  |  |  |  |  | MIC (Streptococcus pyogenes [8]): 0.5 µg/mL (≈ 0.544 µM); MIC (Streptococcus pneumoniae [9]): ≤ 0.125 µg/mL; MIC (Streptococcus pneumoniae [11]): ≤ 0.125 µg/mL; MIC (Haemophilus influenzae [12]): 64 µg/mL (≈ 69.6 µM) |
| CC[C@H]1OC(=O)[C@H](C)C(=O)[C@H](C)[C@@H](O[C@@H]2O[C@H](COCc3ccccc3)[C@@H](O)[C@H](N(C)C)[C@H]2O)[C@@](C)(OC)C[C@@H](C)C(=O)[C@H](C)[C@H]2N(CCCCn3cc(-c4ccccn4)nn3)C(=O)O[C@]12C |  |  |  |  |  |  |  | ≤ 0.125 µg/mL |  |  |  |  |  |  | MIC (Staphylococcus aureus [13]): ≤ 0.125 µg/mL; MIC (Staphylococcus aureus [14]): ≤ 0.125 µg/mL; MIC (Streptococcus pyogenes [8]): 2 µg/mL (≈ 2.14 µM); MIC (Streptococcus pneumoniae [9]): ≤ 0.125 µg/mL; MIC (Streptococcus pneumoniae [11]): ≤ 0.125 µg/mL; MIC (Haemophilus influenzae [12]): 64 µg/mL (≈ 68.4 µM); MIC (Streptococcus pyogenes [15]): ≤ 0.125 µg/mL |
| CC[C@H]1OC(=O)[C@@](C)(F)C(=O)[C@H](C)[C@@H](O[C@@H]2O[C@H](COCc3ccccc3)[C@@H](O)[C@H](N(C)C)[C@H]2O)[C@@](C)(OC)C[C@@H](C)C(=O)[C@H](C)[C@H]2N(CCCCn3cc(-c4cccc(N)c4)nn3)C(=O)O[C@]12C |  | ≤ 0.125 µg/mL |  |  | 4 µg/mL (≈ 4.14 µM) | ≤ 0.125 µg/mL | ≤ 0.125 µg/mL |  | 8 µg/mL (≈ 8.27 µM) | 4 µg/mL (≈ 4.14 µM) | 4 µg/mL (≈ 4.14 µM) | 0.5 µg/mL (≈ 0.517 µM) | 8 µg/mL (≈ 8.27 µM) | 0.25 µg/mL (≈ 0.258 µM) | MIC (Streptococcus pyogenes [20]): ≤ 0.125 µg/mL |
| CC[C@H]1OC(=O)[C@@](C)(F)C(=O)[C@H](C)[C@@H](O[C@@H]2O[C@H](COCc3ccccc3)C[C@H](N(C)C)[C@H]2O)[C@@](C)(OC)C[C@@H](C)C(=O)[C@H](C)[C@H]2N(CCCCn3cc(-c4cccc(N)c4)nn3)C(=O)O[C@]12C |  | ≤ 0.125 µg/mL |  |  | 4 µg/mL (≈ 4.21 µM) | ≤ 0.125 µg/mL | ≤ 0.125 µg/mL |  | 4 µg/mL (≈ 4.21 µM) | 0.5 µg/mL (≈ 0.526 µM) | 0.25 µg/mL (≈ 0.263 µM) | ≤ 0.125 µg/mL | 8 µg/mL (≈ 8.41 µM) | 0.25 µg/mL (≈ 0.263 µM) |  |
| CC[C@H]1OC(=O)[C@H](C)C(=O)[C@H](C)[C@@H](O[C@@H]2O[C@H](C)C[C@H](N(C)C)[C@H]2O)[C@@](C)(OC)C[C@@H](C)C(=O)[C@H](C)[C@H]2N(CCCCn3cc(-c4ccccn4)nn3)C(=O)O[C@]12C | ≤ 0.125 µg/mL | ≤ 0.125 µg/mL | ≤ 0.125 µg/mL | 0.125 µg/mL (≈ 0.154 µM) | 4 µg/mL (≈ 4.92 µM) | ≤ 0.125 µg/mL | ≤ 0.125 µg/mL |  |  |  |  | > 64 µg/mL |  |  |  |
| CC[C@H]1OC(=O)[C@H](C)C(=O)[C@H](C)[C@@H](O[C@@H]2O[C@H](C)[C@@H](O)[C@H](O)[C@H]2O)[C@@](C)(OC)C[C@@H](C)C(=O)[C@H](C)[C@H]2N(CCCCn3cc(-c4ccccn4)nn3)C(=O)O[C@]12C |  | 2 µg/mL (≈ 2.49 µM) | > 64 µg/mL | > 64 µg/mL | > 64 µg/mL |  | 16 µg/mL (≈ 20 µM) | 4 µg/mL (≈ 4.99 µM) |  |  |  |  |  |  | MIC (Streptococcus pyogenes [15]): 8 µg/mL (≈ 9.98 µM) |
| CC[C@H]1OC(=O)[C@H](C)C(=O)[C@H](C)[C@@H](O[C@@H]2O[C@H](C)[C@@H](O)[C@H](N(C)C)[C@H]2O)[C@@](C)(OC)C[C@@H](C)C(=O)[C@H](C)[C@H]2N(CCCCn3cc(-c4ccccn4)nn3)C(=O)O[C@]12C | ≤ 0.125 µg/mL | 0.5 µg/mL (≈ 0.603 µM) | ≤ 0.125 µg/mL | 0.25 µg/mL (≈ 0.302 µM) | 16 µg/mL (≈ 19.3 µM) | ≤ 0.125 µg/mL | 16 µg/mL (≈ 19.3 µM) |  |  |  |  | > 64 µg/mL |  |  |  |
| CC[C@H]1OC(=O)[C@@](C)(F)C(=O)[C@H](C)[C@@H](O[C@@H]2O[C@H](CO)[C@@H](O)[C@H](N(C)C)[C@H]2O)[C@@](C)(OC)C[C@@H](C)C(=O)[C@H](C)[C@H]2N(CCCCn3cc(-c4cccc(N)c4)nn3)C(=O)O[C@]12C |  | ≤ 0.125 µg/mL |  |  | > 32 µg/mL | ≤ 0.125 µg/mL | ≤ 0.125 µg/mL |  | > 32 µg/mL | > 32 µg/mL | > 32 µg/mL | > 32 µg/mL | > 32 µg/mL | > 32 µg/mL | MIC (Streptococcus pyogenes [20]): ≤ 0.125 µg/mL |
| CC[C@H]1OC(=O)[C@H](C)C(=O)[C@H](C)[C@@H](O[C@@H]2O[C@H](CO)[C@@H](O)[C@H](N(C)C)[C@H]2O)[C@@](C)(OC)C[C@@H](C)C(=O)[C@H](C)[C@H]2N(CCCCn3cc(-c4ccccn4)nn3)C(=O)O[C@]12C | ≤ 0.125 µg/mL |  | 4 µg/mL (≈ 4.73 µM) | 64 µg/mL (≈ 75.7 µM) | 64 µg/mL (≈ 75.7 µM) | ≤ 0.125 µg/mL | ≤ 0.125 µg/mL |  |  |  |  | > 64 µg/mL |  |  | MIC (Streptococcus pneumoniae [23]): 4 µg/mL (≈ 4.73 µM) |
| CC[C@H]1OC(=O)[C@H](C)[C@@H](O[C@H]2C[C@@](C)(OC)[C@@H](O)[C@H](C)O2)[C@H](C)[C@@H](O[C@@H]2O[C@H](C)C[C@H](N(C)C)[C@H]2O)[C@](C)(O)C[C@@H](C)CN(C)[C@H](C)[C@@H](O)[C@]1(C)O [AZITHROMYCIN] | ≤ 0.125 µg/mL | 8 µg/mL (≈ 10.7 µM) |  | ≥ 64 µg/mL | 4 µg/mL (≈ 5.34 µM) | ≤ 0.125 µg/mL | > 64 µg/mL |  | > 64 µg/mL | > 64 µg/mL | > 64 µg/mL |  | > 64 µg/mL | > 64 µg/mL | MIC (Staphylococcus aureus [24]): 1 µg/mL (≈ 1.34 µM); MIC (Streptococcus pyogenes [25]): > 64 µg/mL |
| CC[C@H]1OC(=O)[C@H](C)C(=O)[C@H](C)[C@@H](O[C@@H]2O[C@H](C)C[C@H](N(C)C)[C@H]2O)[C@](C)(OC)C[C@@H](C)C(=O)[C@H](C)[C@H]2N(CCCCn3cnc(-c4cccnc4)c3)C(=O)O[C@]12C [TELITHROMYCIN] | ≤ 0.125 µg/mL | ≤ 0.125 µg/mL | ≤ 0.125 µg/mL | ≤ 0.125 µg/mL | 4 µg/mL (≈ 4.93 µM) |  | ≤ 0.125 µg/mL | ≤ 0.125 µg/mL | 1 µg/mL (≈ 1.23 µM) | 32 µg/mL (≈ 39.4 µM) | 0.5 µg/mL (≈ 0.616 µM) | 16 µg/mL (≈ 19.7 µM) | 64 µg/mL (≈ 78.8 µM) | 8 µg/mL (≈ 9.85 µM) |  |
